Results as given in patent US8263606B2 (Xenon Pharmaceuticals Inc., priority 2008, dated 2012).

Experiments:
sodium channel = assay: Guanidine influx assay (14C-guanidine radiotracer flux, in vitro); format: cell-based, human or rat; details: guanidine influx assay using a known cell line that expresses a sodium channel
In short: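 Test agents at half-step dilutions around 1 μM are added to plated cells in low-sodium HEPES buffer, then an aconitine/14C-guanidine mixture; after ambient-temperature incubation, cells are washed and counted. IC50 comes from a sigmoidal fit.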

CYP3A4 = CYP3A4 (Homo sapiens, UniProt P08684); assay: Cytochrome P450 (CYP450) Inhibition Assay, CYP3A4 (Vivid fluorescence, BOMCC substrate); details: human, P450 Baculosomes (recombinant CYP3A4), probe BOMCC (Vivid substrate)
CYP3A4, sequence (P08684 whole entry): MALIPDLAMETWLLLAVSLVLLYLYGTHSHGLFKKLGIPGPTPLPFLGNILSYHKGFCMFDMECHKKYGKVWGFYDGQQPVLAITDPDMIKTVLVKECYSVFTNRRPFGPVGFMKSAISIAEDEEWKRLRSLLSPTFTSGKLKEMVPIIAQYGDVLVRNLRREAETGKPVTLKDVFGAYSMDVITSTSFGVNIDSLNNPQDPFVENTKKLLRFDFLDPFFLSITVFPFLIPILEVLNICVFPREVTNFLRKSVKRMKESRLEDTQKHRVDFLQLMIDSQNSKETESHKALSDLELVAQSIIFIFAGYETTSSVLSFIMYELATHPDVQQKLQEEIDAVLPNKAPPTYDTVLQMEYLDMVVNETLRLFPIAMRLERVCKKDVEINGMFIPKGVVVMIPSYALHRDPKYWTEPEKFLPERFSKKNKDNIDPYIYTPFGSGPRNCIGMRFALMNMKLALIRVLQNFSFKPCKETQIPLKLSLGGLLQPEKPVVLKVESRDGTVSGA

IC50 (sodium channel; activity level class) | melting point | inhibition at 10 µM (CYP3A4) | IC50 (sodium channel) | SMILES
1 to 100 nM | 161 to 163 °C | > 50% |  | O=C1N(Cc2sccc2Cl)c2ccccc2C12COc1cc3c(cc12)OCO3 (stereo not drawn) [Example 6.3, 1′-[(3-chlorothiophen-2-yl)methyl]spiro[furo[2,3-f][1,3]benzodioxole-7,3′-indol]-2′(1′H)-one]
1 to 100 nM | 197 to 200 °C | < 50% |  | O=C1N(Cc2cncc(F)c2)c2ccccc2[C@]12COc1cc3c(cc12)OCCO3 [Example 8.19, (8S)-1′-[(5-fluoropyridin-3-yl)methyl]-2,3-dihydrospiro[furo[2,3-g][1,4]benzodioxine-8,3′-indol]-2′(1′H)-one]
1 to 100 nM | 55 to 57 °C | > 50% |  | CC1(C)OC[C@H](CN2C(=O)C3(COc4cc5c(cc43)OCCO5)c3ccccc32)O1 (stereo partly drawn) [Example 9.45, 1′-{[(4S)-2,2-dimethyl-1,3-dioxolan-4-yl}methyl]-2,3-dihydrospiro[furo[2,3-g][1,4]benzodioxine-8,3′-indol]-2′(1′H)-one]
100 to 1000 nM | 158 to 160 °C | > 50% |  | O=C1N(Cc2nnc(-c3ccccc3)o2)c2ccccc2C12COc1cc3c(cc12)OCO3 (stereo not drawn) [Example 6.6, 1′-[(5-phenyl-1,3,4-oxadiazol-2-yl)methyl]spiro[furo[2,3-f][1,3]benzodioxole-7,3′-indol]-2′(1′H)-one]
1000 to 10000 nM | 183 to 185 °C | < 50% |  | O=C1N(C(c2ccccc2)c2ccccc2)c2ccccc2C12COc1cc3c(cc12)OCCO3 (stereo not drawn) [Example 2.11, 1′-(diphenylmethyl)-2,3-dihydrospiro[furo[2,3-g][1,4]benzodioxine-8,3′-indol]-2′(1′H)-one]
1 to 100 nM | 169 to 171 °C | > 50% |  | Cc1cc(CN2C(=O)C3(COc4cc5c(cc43)OCO5)c3ccccc32)c(C)n1C(C)C (stereo not drawn) [Example 1.3, 1′-{[2,5-dimethyl-1-(1-methylethyl)-1H-pyrrol-3-yl]methyl}spiro[furo[2,3-f][1,3]benzodioxole-7,3′-indol]-2′(1′H)-one]
1 to 100 nM | 180 to 182 °C | < 50% |  | O=C1N(Cc2ccccn2)c2ccccc2C12COc1ccc3nonc3c12 (stereo not drawn) [Example 4.124, 1′-(pyridin-2-ylmethyl)spiro[furo[3,2-e][2,1,3]benzoxadiazole-8,3′-indol]-2′(1′H)-one]
 | 171 to 172 °C | < 50% | 100 to 1000 nM | CC(C)(C)OC(=O)N1C(=O)C2(COc3cc4c(cc32)OCCO4)c2ccccc21 (stereo not drawn) [Example 18.2, tert-butyl 2′-oxo-2,3-dihydrospiro[furo[2,3-g][1,4]benzodioxine-8,3′-indole]-1′(2′H)-carboxylate]
1 to 100 nM | 198 to 200 °C | < 50% |  | O=C1N(Cc2ccccn2)c2ccccc2C12COc1cc3c(cc12)OCC3 (stereo not drawn) [Example 4.52, 1′-(pyridin-2-ylmethyl)-6,7-dihydrospiro[benzo[1,2-b:4,5-b′]difuran-3,3′-indol]-2′(1′H)-one]
 | 135 to 138 °C | > 50% | 1 to 100 nM | Cc1noc2cc3c(cc12)C1(CO3)C(=O)N(CCC(C)C)c2ccccc21 (stereo not drawn) [Example 9.55, 3-methyl-1′-(3-methylbutyl)spiro[furo[3,2-f][1,2]benzisoxazole-5,3′-indol]-2′(1′H)-one]
 | 261 to 262 °C | > 50% | 1000 to 10000 nM | Cc1cccc(C)c1NC(=O)CN1C(=O)C2(COc3cc4c(cc32)CCO4)c2ccccc21 (stereo not drawn) [Example 12.56, N-(2,6-dimethylphenyl)-2-(2′-oxo-5,6-dihydrospiro[benzo[1,2-b:5,4-b′]difuran-3,3′-indol]-1′(2′H)-yl)acetamide]
100 to 1000 nM | 49 to 52 °C | > 50% |  | C[C@@H](CN1C(=O)C2(COc3cc4c(cc32)CCO4)c2ccccc21)OCOCc1ccccc1 (stereo partly drawn) [Example 4.25, 1′-{(2S)-2-[(benzyloxy)methoxy]propyl}-5,6-dihydrospiro[benzo[1,2-b:5,4-b′]difuran-3,3′-indol]-2′(1′H)-one]
 | 212 to 215 °C | > 50% | 1000 to 10000 nM | O=C1N(Cc2ncccc2C(F)(F)F)c2ccccc2C12COc1ccc3nonc3c12 (stereo not drawn) [Example 11.107, 1′-{[3-(trifluoromethyl)pyridin-2-yl]methyl}spiro[furo[3,2-e][2,1,3]benzoxadiazole-8,3′-indol]-2′(1′H)-one]
100 to 1000 nM | 162 to 164 °C | < 50% |  | O=C1N(C[C@H]2CCCO2)c2ccccc2C12COc1cc3c(cc12)OCC3 (stereo partly drawn) [Example 8.9, 1′-[(2R)-tetrahydrofuran-2-ylmethyl]-6,7-dihydrospiro[benzo[1,2-b:4,5-b′]difuran-3,3′-indol]-2′(1′H)-one]
100 to 1000 nM | 81 to 82 °C | < 50% |  | O=C1N(Cc2cccnn2)c2ccccc2C12COc1cc3c(cc12)CCO3 (stereo not drawn) [Example 9.9, 1′-(pyridazin-3-ylmethyl)-5,6-dihydrospiro[benzo[1,2-b:5,4-b′]difuran-3,3′-indol]-2′(1′H)-one]
 | 122 to 124 °C | < 50% | 1000 to 10000 nM | N#Cc1cc2c(cc1O)OCC21C(=O)N(Cc2ccccc2C(F)(F)F)c2ccccc21 (stereo not drawn) [Example 45.1, 6-hydroxy-2′-oxo-1′-[2-(trifluoromethyl)benzyl]-1′,2′-dihydrospiro[1-benzofuran-3,3′-indole]-5-carbonitrile]
1 to 100 nM | 174 to 176 °C | < 50% |  | O=C1N(C[C@H]2CCCO2)c2ccccc2C12COc1cc3c(cc12)OCCO3 (stereo partly drawn) [Example 4.44, 1′-[(2R)-tetrahydrofuran-2-ylmethyl]-2,3-dihydrospiro[furo[2,3-g][1,4]benzodioxine-8,3′-indol]-2′(1′H)-one]
1000 to 10000 nM | 232 to 233 °C | < 50% |  | O=C1N(Cc2ccccn2)c2ccccc2C12COc1cc3nccnc3cc12 (stereo not drawn) [Example 4.130, 1′-(pyridin-2-ylmethyl)spiro[furo[2,3-g]quinoxaline-8,3′-indol]-2′(1′H)-one]
1 to 100 nM | 209 to 212 °C | < 50% |  | O=C1N(Cc2ccc(-c3ccno3)cc2)c2ccccc2C12COc1cc3c(cc12)OCCO3 (stereo not drawn) [Example 4.97, 1′-(4-isoxazol-5-ylbenzyl)-2,3-dihydrospiro[furo[2,3-g][1,4]benzodioxine-8,3′-indol]-2′(1′H)-one]
1000 to 10000 nM | 222 to 224 °C | < 50% |  | N#Cc1cc2c(cc1F)OCC21C(=O)Nc2ccccc21 (stereo not drawn) [Example 3.30, 6-fluoro-2′-oxo-1′,2′-dihydrospiro[1-benzofuran-3,3′-indole]-5-carbonitrile]
 | 262 to 264 °C | > 50% | 1000 to 10000 nM | Nc1noc2cc3c(cc12)C1(CO3)C(=O)N(Cc2ccccc2C(F)(F)F)c2ccccc21 (stereo not drawn) [Example 44.3, 3-amino-1′-[2-(trifluoromethyl)benzyl]spiro[furo[3,2-f][1,2]benzisoxazole-5,3′-indol]-2′(1′H)-one]
 | 171 to 174 °C | < 50% | 100 to 1000 nM | C[C@H](O)CN1C(=O)C2(COc3cc4c(cc32)CCO4)c2ccccc21 (stereo partly drawn) [Example 14, 1′-[(2S)-2-hydroxypropyl]-5,6-dihydrospiro[benzo[1,2-b:5,4-b′]difuran-3,3′-indol]-2′(1′H)-one]
100 to 1000 nM | 189 to 191 °C | > 50% |  | O=C1N(Cc2ccc(C(F)(F)F)o2)c2cc3c(cc2C12COc1cc4c(cc12)CCO4)OCCO3 (stereo not drawn) [Example 2.25, 6-((5-(trifluoromethyl)furan-2-yl)methyl)-2,3,5′,6′-tetrahydro-2′H-spiro[f-[1,4]dioxino[2,3-f]indole-8,3′-benzofuro[6,5-b]furan]-7(6H)-one]
1 to 100 nM | > 200 °C | > 50% |  | O=C1Nc2cccc(Cl)c2C12COc1cc3c(cc12)CCO3 (stereo not drawn) [Example 3.1, 4′-chloro-5,6-dihydrospiro[benzo[1,2-b:5,4-b′]difuran-3,3′-indol]-2′(1′H)-one]
 | 245 to 251 °C | < 50% | 100 to 1000 nM | O=C(Nc1ccccc1F)c1ccc(CN2C(=O)C3(COc4cc5c(cc43)OCCO5)c3ccccc32)cc1 (stereo not drawn) [Example 12.65, N-(2-fluorophenyl)-4-[(2′-oxo-2,3-dihydrospiro[furo[2,3-g][1,4]benzodioxine-8,3′-indol]-1′(2′H)-yl)methyl]benzamide]
 | 120 to 130 °C | < 50% | 1000 to 10000 nM | Cl.O=C1N(C[C@H]2CCCO2)c2ccccc2C12COc1cc(O[C@@H]3CCNC3)ccc12 (stereo partly drawn) [Example 11.58, 6-[(3R)-pyrrolidin-3-yloxy]-1′-[(2R)-tetrahydrofuran-2-ylmethyl]spiro[1-benzofuran-3,3′-indol]-2′(1′H)-one hydrochloride]
 | 254 to 258 °C | < 50% | 1000 to 10000 nM | O=C(O)c1cccc(CN2C(=O)C3(COc4cc5c(cc43)OCCO5)c3ccccc32)c1 (stereo not drawn) [Example 11.86, 3-[(2′-oxo-2,3-dihydrospiro[furo[2,3-g][1,4]benzodioxine-8,3′-indol]-1′(2′H)-yl)methyl]benzoic acid]
1 to 100 nM | 191 to 193 °C | < 50% |  | O=C1N(Cc2ccccc2C(F)F)c2ccccc2C12COc1cc3c(cc12)OCCO3 (stereo not drawn) [Example 8.17]
